From patent US6448436B1, “Integrated process for the production of 2, 6-naphthalene dicarboxylic acid” (Mossi & Ghisolfi Overseas, S. A., priority 1999, dated 2002)

Test: Solubility of the potassium salts equilibrated in aqueous potassium carbonate solutions
Type: physicochemical
Description: The data was gathered by equilibrating the potassium salts of 2-KNA and 2,6-K2NDA in aqueous solutions of potassium carbonate. The capped jars were contained in water baths to control the temperature and were magnetically stirred to speed the dissolution of the solids. Data derived from the solubility studies are outlined in Table 6.

[1] = 10 wt % K2CO3 aqueous solution, 35° C.
[2] = 15 wt % K2CO3 aqueous solution, 35° C.
[3] = 20 wt % K2CO3 aqueous solution, 35° C.
[4] = 20 wt % K2CO3 aqueous solution, 80° C.
[5] = 25 wt % K2CO3 aqueous solution, 35° C.
[6] = 25 wt % K2CO3 aqueous solution, 80° C.
[7] = 30 wt % K2CO3 aqueous solution, 35° C.
[8] = 30 wt % K2CO3 aqueous solution, 80° C.

SMILES | Solubility Ratio 2,6-K2NDA/2-KNA (10 wt % K2CO3, 35° C.) | Solubility [1] [wt %] | Solubility Ratio 2,6-K2NDA/2-KNA (15 wt % K2CO3, 35° C.) | Solubility [2] [wt %] | Solubility Ratio 2,6-K2NDA/2-KNA (20 wt % K2CO3, 35° C.) | Solubility Ratio 2,6-K2NDA/2-KNA (20 wt % K2CO3, 80° C.) | Solubility [3] [wt %] | Solubility [4] [wt %] | Solubility Ratio 2,6-K2NDA/2-KNA (25 wt % K2CO3, 35° C.) | Solubility Ratio 2,6-K2NDA/2-KNA (25 wt % K2CO3, 80° C.) | Solubility [5] [wt %] | Solubility [6] [wt %] | Solubility Ratio 2,6-K2NDA/2-KNA (30 wt % K2CO3, 35° C.) | Solubility Ratio 2,6-K2NDA/2-KNA (30 wt % K2CO3, 80° C.) | Solubility [7] [wt %] | Solubility [8] [wt %] | Temperature dependence of solubility (aqueous K2CO3 solutions, 35° C. vs 80° C.)
O=C([O-])c1ccc2cc(C(=O)[O-])ccc2c1.[K+].[K+] [2,6-K2NDA, dipotassium salt of 2,6-NDA] | 0.41 | 13.8 | 0.52 | 6.8 | 1.13 | 0.13 | 2.4 | 5.5 | 1.41 | 0.08 | 0.6 | 1.6 | 1.33 | 0.08 | 0.2 | 0.6 | only a weak function of temperature
O=C([O-])c1ccc2ccccc2c1.[K+] [2-KN] | – | 33.9 | – | 13.2 | – | – | 2.1 | 41.1 | – | – | 0.4 | 19.2 | – | – | 0.2 | 7.4 | –
